These results are taken from ChEMBL document CHEMBL1201862, “PubChem BioAssay data set” (2004).

Test in all cases: NCI-60 cell line screen, 48 h
Test [1] concerns RXF 631.
In test [2] the test system is HOP-18.
Test [3] relates to SNB-78.
Test [4] deals with DMS-114.
In test [5] the test system is T47D.
The subject of test [6] is KM-20L2.
In test [7] the test system is XF498.
For test [8], the system named is LXFL 529.
Test [9] relates to NCI/ADR-RES.

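Five compound concentrations were applied to cells in 96-well plates for 48 hours; endpoints were derived by simple linear interpolation of the resulting dose-response curve. GI50 = concentration required for 50% inhibition of growth.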 Active and inactive are the calls of the source. No stated cut-off is given here; in the data, active = GI50 up to about 1.1 µM and inactive = higher.

For the compound `O=C1CCC(=O)C1=NNc1cc(Cl)cc(Cl)c1`, the GI50 in [1] was > 100 µM (inactive); in test [2], > 100 µM (inactive); in test [3], > 100 µM (inactive); in test [4], 98.2 µM (inactive).
As for `CNC1C(O)CC(OC2C/C=C(\C)C/C(C)=C/C=C/CCC(C)CNC(=O)/C=C/C=C/C2C)OC1C` (stereo not drawn), the GI50 in [1] is 0.206 µM (active); in test [2], 1.77 µM (inactive); in test [5], 0.783 µM (active); in test [6] it was 0.63 µM (active); in test [7], 1.68 µM (inactive); in test [8] it was 0.14 µM (active). In addition, the results for the GI50 in test [3], in test [4] and in [9] were 1.66 µM (inactive), 0.463 µM (active) and 0.718 µM (active), respectively.
In the case of `COC(=O)OCC1OC(N2C(=O)NC(=O)C(I)C2N=[N+]=[N-])CC1OC(=O)OC` (stereo not drawn), the GI50 in test [1], in test [6], in test [7], in test [8] and in test [3] was > 100 µM (inactive) each time.
For the compound `CN(C)c1ccc(/C=c2\sc3nnc(-c4ccco4)n3c2=O)cc1`, the GI50 in [1], in [2], in test [6], in [7], in [8] and in test [3] was > 100 µM (inactive) each time. Moreover, in test [4], the GI50 is > 100 µM (inactive).
`OCC(CO)C1c2cccc3ccc4cccc1c4c23`: the GI50 in test [1], in [2], in [6], in [7], in test [3] and in test [4] was > 100 µM (inactive) throughout.
In the case of `Nc1nc(NCCO)c(N=O)c(=O)[nH]1`, the GI50 in [2], in [6], in [7], in test [8], in test [3] and in [4] was > 100 µM (inactive) throughout.
`CC(C)(C)c1cc(C(O)(C(F)(F)F)C(F)(F)F)c2c(c1)C(C(F)(F)F)(C(F)(F)F)OC(C(C)(C)C)N2` (stereo not drawn): the GI50 is 2.15 µM (inactive) in test [1]; 2.55 µM (inactive) in [2]; 2.86 µM (inactive) in [6]; < 0.01 µM (active) in test [7]; 2.82 µM (inactive) in test [8]; 2.75 µM (inactive) in [3]. Also, the GI50 in [4] was 1.12 µM (inactive).
Regarding `COC(=O)C(=O)C(C(=O)C=C(C)C)C(=O)C(=O)Nc1ccc(C)cc1C` (stereo not drawn), the GI50 in test [2], in test [6], in test [7], in [8], in test [3] and in [4] was > 100 µM (inactive) throughout.
For the compound `CC(/C=C/C(=O)c1sc(C(N)=S)nc1C)=C\c1ccccc1`, the GI50 is 40.6 µM (inactive) in test [1]; > 100 µM (inactive) in [2]; 80.2 µM (inactive) in test [6]; > 100 µM (inactive) in [7]; > 100 µM (inactive) in test [8]; > 100 µM (inactive) in test [3]. Also, in test [4], the GI50 was 17 µM (inactive).
Take `COC(=O)/C=C(\C(=O)OC)c1c2c3c(cc(OC)c(OC)c3c3ccccc13)CCN2C`: the GI50 in test [1] is 33.8 µM (inactive); in test [2], 64.9 µM (inactive); in test [6] it was 12.6 µM (inactive); in test [8] it was 42.1 µM (inactive); in test [3], 37.8 µM (inactive); in test [4], 27.9 µM (inactive).
As to `CC1CC[P+](c2ccccc2)(c2ccccc2)CC1`, the GI50 was > 100 µM (inactive) in test [2]; 89.1 µM (inactive) in test [6]; 25.1 µM (inactive) in test [7]; 31.7 µM (inactive) in [8]; > 100 µM (inactive) in test [3]; 50.1 µM (inactive) in test [4].
As for `CC(C)(C)/N=N/C(C)(C)N=C=O`, the GI50 in test [2], in test [6], in [7], in test [8], in [3] and in test [4] was > 100 µM (inactive) each time.
Consider `CC/C(=N\NS(=O)(=O)c1ccccc1)c1ccccc1`, for which the GI50 in [1], in [2], in [6], in test [7], in test [8] and in test [3] was > 100 µM (inactive) each time.
As to `COc1ccc2c(c1)C(O)(C(F)(F)F)c1cc(C(=O)C(F)(F)F)c3ccccc3c1N2` (stereo not drawn), the GI50 in test [1] was 13.5 µM (inactive); in test [2], 17.4 µM (inactive); in test [6] it was 3.71 µM (inactive); in test [8] it was 10.3 µM (inactive); in test [4], 10 µM (inactive).
Turning to `Cc1cc(C)nc(NS(=O)(=O)c2ccc(NC(=O)c3ccc(Cl)c4c(Nc5ccc(S(=O)(=O)Nc6nc(C)cc(C)n6)cc5)c5ccccc5nc34)cc2)n1`, the GI50 in [1] is 4.29 µM (inactive); in [2] it was 2.32 µM (inactive); in test [6], 6.43 µM (inactive); in [7], > 100 µM (inactive); in test [8], 4.69 µM (inactive); in [3], 3.71 µM (inactive). In addition, the GI50 in test [4] is 2.87 µM (inactive).
As for `COc1cc2[nH]c3c(c2cc1OC)CCN[C@]31CC[C@]2(CC3c4c(cc(OC)c(O)c42)CCN3C)C[C@H]1OC` (stereo partly drawn), the GI50 in test [1] is 11.7 µM (inactive); in test [2], 18 µM (inactive); in test [6] it was 28.1 µM (inactive); in [7], 15.6 µM (inactive); in [8], 24.5 µM (inactive); in test [3], 29.1 µM (inactive). Besides, the GI50 in [4] was 17.3 µM (inactive).
For the compound `O=C1Cc2c([nH]c3ccccc23)-c2cc(Br)ccc2N1`, the GI50 in test [1], in [2], in [6], in [8], in test [3] and in [4] was > 100 µM (inactive) throughout.
As for `COc1ccc2[nH]c3c(cnn4cnnc34)c2c1`, the GI50 in test [1], in [2], in [6], in test [8] and in test [4] was > 100 µM (inactive) each time.
Turning to `COc1ccc(/C=C/c2cc(OC)cc(OC)c2)cc1` [TRISMETHOXYRESVERATROL], the GI50 is 4.2 µM (inactive) in test [1]; > 24.3 µM (inactive) in test [2]; 3.15 µM (inactive) in [6]; 8.43 µM (inactive) in test [7]; 4.86 µM (inactive) in [8]; 3.98 µM (inactive) in test [3]. Also, in test [4], the GI50 was 3.5 µM (inactive).
